Test results from patent US20210283139A1, “BIFUNCTIONAL MOLECULES FOR TARGETING UCHL5” (AMPHISTA THERAPEUTICS LTD, priority 2018, published 2021).

What was measured:
Format in all cases: cell-based
[1] = molecular target: T1, Brd3 (Homo sapiens, UniProt Q15059); assay: Concentration-dependent BET degradation, immunoblot, HeLa cells; set-up: endogenous in cells; host or cells: HeLa; settings: Brd3, 6 h treatment, 1 nM-10 μM; for Dmax: read-out: Dmax (%) maximum degradation observed
Protocol: (§1) Cell culture. HeLa (CCL-2) and HEK293 (CRL-1573) cells were purchased from ATCC and cultured in DMEM medium (Gibco) supplemented with 10% FBS, 100 μg/mL penicillin/streptomycin and L-glutamine. Cells were grown at 37° C. and 5% CO2, and were kept no longer than 30 passages. All cell lines were routinely tested for mycoplasma contamination using MycoAlert kit from Lonza.
(§2) Immunoblotting. proteins were separated by SDS-PAGE on NuPage 4-12% Bis-Tris gels, followed by transfer to Amersham Protran 0.45 NC nitrocellulose membrane (GE Healthcare) using wet transfer. Membranes were blocked using 5% w/v milk in Tris-buffered saline (TBS) with 0.1% Tween-20. Blots were probed (overnight at 4° C.) using anti-Brd2 (Abcam ab139690, 1:2,000 dilution), anti-Brd3 (Abcam ab50818, 1:500 dilution), and anti-Brd4 (Abcam ab128874, 1:1,000 dilution) primary antibodies, as appropriate. The next day, blots were washed with TBST and incubated (1 hr at RT) with anti-Tubulin hFAB-rhodamine (BioRad, 12004166) primary antibody, and either anti-rabbit IRDye 800CW (Licor 1:10,000 dilution) or anti-mouse IRDye 800CW (Licor 1:10,000 dilution) secondary antibody. Blots were developed using a Bio-Rad ChemiDoc MP Imaging System, and band quantification was performed using Image Studio software (LiCor). Band intensities were normalized to the tubulin loading control and reported as % of the average 0.1% DMSO vehicle intensity. Degradation data was plotted and analysed using Prism (Graphpad, version 8).
(§3) HeLa (5×10^5) and HEK293 (1×10^6) cells were seeded in standard 6-well plates (2 mL medium) overnight before treatment with compounds at the desired concentration (1 nM-10 μM), with a final DMSO concentration of 0.1% v/v. After 6 h treatment time, cells were washed with DPBS (Gibco) and lysed using 85 μL RIPA buffer (Sigma-Aldrich) supplemented with cOmplete Mini EDTA-free protease inhibitor cocktail (Roche) and benzonase. Lysates were clarified by centrifugation (20,000g, 10 min, 4° C.) and the total protein content of the supernatant was quantified using a Bradford colorimetric assay. Samples were prepared using equal amounts of total protein and LDS sample buffer (Invitrogen.
(§4) Representative blots in FIG. 3 show depletion of Brd2, Brd3 and Brd4 protein levels following treatment with increasing concentrations of representative compounds. Band intensities were normalized to the β-tubulin loading control and reported as % of the average 0.1% DMSO vehicle intensity, with each point representing mean±SEM of two independent experiments (n=2). Degradation data was plotted and analysed using Prism (Graphpad, version 8)

[2] = molecular target: T2, Brd2 (Homo sapiens, UniProt P25440); assay: as above; set-up: endogenous in cells; host or cells: HeLa; settings: Brd2, 6 h treatment, 1 nM-10 μM; for Dmax: read-out: Dmax (%) maximum degradation observed
T2 sequence (P25440 whole entry): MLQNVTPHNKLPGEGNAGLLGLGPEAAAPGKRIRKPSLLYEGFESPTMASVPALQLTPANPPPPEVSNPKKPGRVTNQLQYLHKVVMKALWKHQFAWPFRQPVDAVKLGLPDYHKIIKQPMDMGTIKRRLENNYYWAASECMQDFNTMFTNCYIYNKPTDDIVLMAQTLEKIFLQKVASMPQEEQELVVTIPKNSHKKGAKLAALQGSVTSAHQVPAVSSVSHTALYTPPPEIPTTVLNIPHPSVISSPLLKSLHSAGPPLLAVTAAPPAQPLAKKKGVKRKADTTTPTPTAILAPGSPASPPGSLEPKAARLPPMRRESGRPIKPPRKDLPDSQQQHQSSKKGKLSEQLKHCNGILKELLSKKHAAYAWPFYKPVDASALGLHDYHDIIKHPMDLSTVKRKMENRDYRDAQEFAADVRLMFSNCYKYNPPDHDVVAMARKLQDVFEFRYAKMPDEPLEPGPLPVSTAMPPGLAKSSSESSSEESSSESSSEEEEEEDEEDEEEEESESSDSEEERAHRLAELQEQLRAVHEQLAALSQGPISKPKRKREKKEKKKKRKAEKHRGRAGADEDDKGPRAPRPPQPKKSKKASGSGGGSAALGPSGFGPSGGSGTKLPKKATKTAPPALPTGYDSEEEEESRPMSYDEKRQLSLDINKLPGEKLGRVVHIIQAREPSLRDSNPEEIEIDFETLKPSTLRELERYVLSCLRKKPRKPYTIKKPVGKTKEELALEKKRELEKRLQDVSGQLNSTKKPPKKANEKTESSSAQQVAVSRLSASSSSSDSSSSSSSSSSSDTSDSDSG
Protocol: as §1, §2, §3, §4

[3] = tested on: MV4-11 cells; assay: Anti-proliferative effect, CellTiter-Glo assay; settings: MV4-11, CellTiter-Glo, 72 h incubation, 5 μM and below
Protocol: The anti-proliferative effects of representative compounds were measured using the CellTiter-Glo assay (Promega). MV4-11 cells were incubated in a sterile, white, clear-bottomed 384-well cell-culture microplate (Greiner Bio-one), at 2× concentration in RPMI media and a volume of 25 μl. The next day, test compounds were serially diluted in RPMI media to 2× concentration, then added to cells to make a final volume of 50 μl. After a 72 h incubation 25 μl of CellTiter-Glo reagent was added to each well. Following 15 minute incubation the luminescence signal was read on a Pherastar FS. The final concentration of assay components are as follows: 3×10^5 cells/mL, 0.05% DMSO, 5 μM and below compound. Data (FIG. 11) was processed and dose-response curves generated using Prism 8 (Graphpad).

[4] = molecular target: T1, Brd3; assay: Time-dependent BET degradation, immunoblot, HeLa cells; set-up: endogenous in cells; host or cells: HeLa; settings: Brd3, 1 μM, timecourse 0-8 h
Protocol: as §1, §2
as §3, with “(3×10^5)” for “(5×10^5)”, “(0.5×10^6)” for “(1×10^6)”, “1 μM concentration,” for “the desired concentration (1 nM-10 μM),”, “incubation for the desired time (0-8 h),” for “6 h treatment time,”, “(20,000 g,” for “(20,000g,”, “(Invitrogen).” for “(Invitrogen.”
as §4, with “FIG. 4” for “FIG. 3”, “following 1 μM” for “following”, “treatment at various time points” for “treatment”, “with” for “with increasing concentrations of”, “version 8).” for “version 8)”
(§5) T½ (h) is the time required to deplete 50% of the protein relative to DMSO

[5] = molecular target: T2, Brd2; assay: as above; set-up: endogenous in cells; host or cells: HeLa; settings: Brd2, 1 μM, timecourse 0-8 h
Protocol: as §1, §2
as §3, with “(3×10^5)” for “(5×10^5)”, “(0.5×10^6)” for “(1×10^6)”, “1 μM concentration,” for “the desired concentration (1 nM-10 μM),”, “incubation for the desired time (0-8 h),” for “6 h treatment time,”, “(20,000 g,” for “(20,000g,”, “(Invitrogen).” for “(Invitrogen.”
as §4, with “FIG. 4” for “FIG. 3”, “following 1 μM” for “following”, “treatment at various time points” for “treatment”, “with” for “with increasing concentrations of”, “version 8).” for “version 8)”
as §5

[6] = molecular target: T1, Brd3; assay: Time-dependent BET degradation, immunoblot, HEK293 cells; set-up: endogenous in cells; host or cells: HEK293; settings: HEK293, Brd3, 1 μM, timecourse 0-8 h
Protocol: as §1, §2
as §3, with “(3×10^5)” for “(5×10^5)”, “(0.5×10^6)” for “(1×10^6)”, “1 μM concentration,” for “the desired concentration (1 nM-10 μM),”, “incubation for the desired time (0-8 h),” for “6 h treatment time,”, “(20,000 g,” for “(20,000g,”, “(Invitrogen).” for “(Invitrogen.”
as §4, with “FIG. 4” for “FIG. 3”, “following 1 μM” for “following”, “treatment at various time points” for “treatment”, “with” for “with increasing concentrations of”, “version 8).” for “version 8)”
as §5

[7] = molecular target: T2, Brd2; assay: as above; set-up: endogenous in cells; host or cells: HEK293; settings: HEK293, Brd2, 1 μM, timecourse 0-8 h
Protocol: as §1, §2
as §3, with “(3×10^5)” for “(5×10^5)”, “(0.5×10^6)” for “(1×10^6)”, “1 μM concentration,” for “the desired concentration (1 nM-10 μM),”, “incubation for the desired time (0-8 h),” for “6 h treatment time,”, “(20,000 g,” for “(20,000g,”, “(Invitrogen).” for “(Invitrogen.”
as §4, with “FIG. 4” for “FIG. 3”, “following 1 μM” for “following”, “treatment at various time points” for “treatment”, “with” for “with increasing concentrations of”, “version 8).” for “version 8)”
as §5

[8] = molecular target: T3, Brd4 (S) (Homo sapiens, UniProt O60885); assay: Time-dependent BET degradation, immunoblot, HeLa cells; set-up: dose or concentration left out as unconfirmed; settings: timecourse 0-8 h
T3 construct: endogenous in cells; host or cells: HEK293, HeLa
Protocol: as §1, §2
as §3, with “(3×10^5)” for “(5×10^5)”, “(0.5×10^6)” for “(1×10^6)”, “1 μM concentration,” for “the desired concentration (1 nM-10 μM),”, “incubation for the desired time (0-8 h),” for “6 h treatment time,”, “(20,000 g,” for “(20,000g,”, “(Invitrogen).” for “(Invitrogen.”
as §4, with “FIG. 4” for “FIG. 3”, “following 1 μM” for “following”, “treatment at various time points” for “treatment”, “with” for “with increasing concentrations of”, “version 8).” for “version 8)”
as §5

[9] = molecular target: T4, Brd4 (L) (Homo sapiens, UniProt O60885); assay: as above; set-up: dose or concentration left out as unconfirmed; settings: timecourse 0-8 h
T4 construct: endogenous in cells; host or cells: HEK293, HeLa
Protocol: as §1, §2
as §3, with “(3×10^5)” for “(5×10^5)”, “(0.5×10^6)” for “(1×10^6)”, “1 μM concentration,” for “the desired concentration (1 nM-10 μM),”, “incubation for the desired time (0-8 h),” for “6 h treatment time,”, “(20,000 g,” for “(20,000g,”, “(Invitrogen).” for “(Invitrogen.”
as §4, with “FIG. 4” for “FIG. 3”, “following 1 μM” for “following”, “treatment at various time points” for “treatment”, “with” for “with increasing concentrations of”, “version 8).” for “version 8)”
as §5

T1 sequence (Q15059 whole entry): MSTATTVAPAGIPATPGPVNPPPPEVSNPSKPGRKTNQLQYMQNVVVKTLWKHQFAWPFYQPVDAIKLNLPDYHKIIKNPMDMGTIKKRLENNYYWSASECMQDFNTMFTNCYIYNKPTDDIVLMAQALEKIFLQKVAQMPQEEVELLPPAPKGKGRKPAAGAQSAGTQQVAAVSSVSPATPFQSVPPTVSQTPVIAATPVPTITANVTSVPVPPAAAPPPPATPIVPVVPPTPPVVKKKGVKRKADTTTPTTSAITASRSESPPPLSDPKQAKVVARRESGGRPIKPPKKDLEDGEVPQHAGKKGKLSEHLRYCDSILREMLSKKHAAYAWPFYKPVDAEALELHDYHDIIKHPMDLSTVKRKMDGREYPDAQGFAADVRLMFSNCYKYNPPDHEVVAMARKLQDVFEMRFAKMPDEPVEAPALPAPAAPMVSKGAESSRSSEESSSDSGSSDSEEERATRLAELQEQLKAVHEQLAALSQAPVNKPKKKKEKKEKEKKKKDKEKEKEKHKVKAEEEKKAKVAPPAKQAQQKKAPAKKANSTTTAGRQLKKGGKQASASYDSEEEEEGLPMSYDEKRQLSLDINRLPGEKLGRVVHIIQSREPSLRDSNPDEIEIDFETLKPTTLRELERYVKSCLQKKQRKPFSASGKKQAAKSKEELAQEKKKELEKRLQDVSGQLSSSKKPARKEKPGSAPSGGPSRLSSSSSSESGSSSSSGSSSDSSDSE

Row | DC50 [1] [nM] | Dmax [1] [%] | DC50 [2] [nM] | Dmax [2] [%] | Dmax at 1 µM [4] [%] | Dmax at 1 µM [5] [%] | Dmax at 1 µM [6] [%] | Dmax at 1 µM [7] [%] | Dmax [8] [%] | Dmax [9] [%] | Structure (SMILES) | cytotoxicity profile (anti-proliferative effect) [3]
1 | 51 to 500 | ≥ 71 | 51 to 500 | ≥ 71 | 100 | 54 | 100 | 83 | 100 | 79 | CCCC(NC(=O)/C(C#N)=C/c1cccc(Br)n1)c1ccc(OCC=NOCC(=O)NCCOCCOCCOCCOCCOCCNC(=O)c2ccc3c(c2)[C@H](Nc2ccc(Cl)cc2)C[C@H](C)N3C(C)=O)cc1 (stereo partly drawn) [Example 05IB3] | distinct from I-BET726 and inactive 05IB11
2 | ≤ 50 | ≥ 71 | ≤ 50 | ≥ 71 | 90 | 79 | 74 | 76 | 100 | 100 | CCCC(NC(=O)/C(C#N)=C/c1cccc(Br)n1)c1ccc(OCCOCCOCCOCCOCCOCCOCCNC(=O)c2ccc(-c3ccc4c(c3)[C@H](Nc3ccc(Cl)cc3)C[C@H](C)N4C(C)=O)cc2)cc1 (stereo partly drawn) [Example 05IB6] | distinct from I-BET726 and inactive 05IB11
3 | ≤ 50 | 51 to 70 | 51 to 500 | ≥ 71 | 80 | 76 | 60 | 73 | 100 | 100 | CCCC(NC(=O)/C(C#N)=C/c1nccs1)c1ccc(OCCOCCOCCOCCOCCOCCOCCNC(=O)c2ccc(-c3ccc4c(c3)[C@H](Nc3ccc(Cl)cc3)C[C@H](C)N4C(C)=O)cc2)cc1 (stereo partly drawn) [Example 05IB9] | distinct from I-BET726 and inactive 05IB11
